Key:
[1] = system: MHC Class II molecule of the lymph cell; assay: Expression of MHC Class II molecule of lymph cells by flow cytometry after transdermal administration of adjuvant; assay type: in vivo, BALB/c mouse; conditions: FIG. 1; for number of the lymph cells expressing an MHC Class II molecule: 50 μL of acetone solution (50%) applied transdermally to shaved abdomen, lymph node five days later
[2] = Skin irritation score, intracutaneous versus transdermal administration; assay type: in vivo, BALB/c mouse; design: Skin irritation score Intracutaneous administration: key to the marks not given beside the values; conditions: for Skin irritation score Transdermal administration: 50 μL of acetone solution (50%) applied transdermally
[3] = system: OVA specific IgG antibody; assay: OVA specific IgG antibody titer, microneedle coated with antigen emulsion; assay type: in vivo, BALB/c mouse; conditions: microneedle coated with emulsion antigen solution:alcohol:Tween 80 1:1:0.01, OVA 0.1 mg/patch, two hours; FIG. 5
Protocol: In addition, in microneedle (OVA+lauryl alcohol or OVA+oleyl alcohol) group, emulsion [antigen solution:lauryl alcohol or oleyl alcohol:surfactant (Tween 80)=1:1:0.01] was coated on the needle of the microneedle and punctured it for two hours. Administration was carried out 0, 2 and 4 weeks later, and blood collection was carried out 2, 4 and 5 weeks later, and OVA specific IgG antibody titers were measured by ELISA.

[4] = system: OVA specific IgG antibody; assay: as above; assay type: in vivo, hairless rat; conditions: microneedle coated with emulsion antigen solution:oil or alcohol:Tween 80 1:1:0.01, OVA 2 mg/patch, two hours; FIG. 4
Protocol: OVA was prepared in the abdomen of the male hairless rat of seven to eight weeks old to give 2 mg/patch, and in the microneedle (OVA+5% polyvinyl alcohol) group, the needle part of the microneedle was coated with an antigen and 5% polyvinyl alcohol liquid [mixed in antigen solution:10% polyvinyl alcohol=1:1], and punctured for two hours. In addition, in microneedle (OVA+olive oil) or (OVA+lauryl alcohol) group, emulsion [antigen solution:olive oil or lauryl alcohol:surfactant (Tween 80)=1:1:0.01] was coated on the needle of the microneedle and punctured it for two hours. Administration was carried out 0, 2 and 4 weeks later, and blood collection was carried out 2, 4 and 5 weeks later, and OVA specific IgG antibody titers were measured by ELISA.

[5] = system: OVA specific IgG antibody; assay: OVA specific IgG antibody titer by ELISA, OVA/LA emulsion with microneedle, skin abrading or iontophoresis; assay type: in vivo, BALB/c mouse; conditions: FIG. 2
Protocol: OVA was prepared to give 100 μg/head, and to the OVA alone group, OVA aqueous solution was applied, and in the group in which lauryl alcohol (LA) was used in combination, the solution in which OVA solution, LA and Tween 20 (emulsifier) was mixed in the ratio of 1:1:0.01 which was emulsified was prepared and used. In the microneedle application group, 1 cm^2 of a microneedle (needle length: about 200 μm, 400 needles/cm^2) was punctured to abdominal skin that had been shaved beforehand, thereafter 50 μL of the above-mentioned emulsion solution was applied immediately. In addition, in skin abrading treatment group, skin was abraded five times using 3M RED Dot™ 2236 instead of a microneedle, thereafter 50 μL of the emulsion solution was applied. In iontophoresis application group, 50 μL of the emulsion solution was applied to shaved abdominal skin, thereafter an iontophoresis preparation (a non-woven fabric preparation: Ag, Ag/AgCl 1 cm^2) in which physiological saline was impregnated to the non-woven fabric was affixed in the applied part, and a direct current (0.4 mA/patch) was applied for one hour. Administration was carried out 0, 2 and 4 weeks later, and blood collection was carried out 2, 4 and 5 weeks later, and OVA specific IgG antibody titers were measured by ELISA.

[6] = system: influenza H3N2; assay: Antibody titer after transnasal administration of influenza H3N2 antigen plus LA; conditions: influenza H3N2 1 μg/head, antigen solution:LA:Tween 80 9:1:0.05; FIG. 6
Protocol: To a male BALB/c mouse of seven to eight weeks old, under inhalation anesthesia (Sevofrane) with matching with breathing, 50 μL of antigen (influenza H3N2 (Biogenesis company): 1 μg/head) was administered to a nose by dripping (transnasal (antigen)). The antigen+LA, [mixed in antigen solution:LA:surfactant (Tween 80)=9:1:0.05] was administered to a nose by dripping (transnasal (antigen+LA)).
In addition, in the intracutaneous treatment group, the abdomen was shaved under Nembutal anesthesia, 50 mL of antigen (influenza H3N2: 0.07 μg/head) was administered intracutaneously (intracutaneous (antigen)). The antigen+LA, [mixed in antigen solution:LA:surfactant (Tween 80)=1:1:0.01] was administered intracutaneously (intracutaneous (antigen+LA)). Boost was made in the same condition 2 and 4 weeks after the first time administration, and blood was collected from fundus after 2, 4 and 5 weeks and antibody titers were measured.

[7] = system: OVA; assay: Antibody titer after oral mucosal administration of OVA plus LA emulsion; assay type: in vivo, BALB/c mouse; conditions: OVA 2500 μg/head, LA groups (20) and (50), boost after one week, blood after two weeks; FIG. 7
[8] = system: OVA specific IgG antibody; assay: OVA specific IgG antibody titer, antigen-coated microneedle after lauryl alcohol applied to skin; assay type: in vivo, hairless rat; conditions: LA applied to skin before puncture with OVA-coated microneedle (2 mg/patch, two hours); FIG. 3
Protocol: OVA was prepared in the abdomen of the male hairless rat of seven to eight weeks old to give 2 mg/patch, and in the microneedle group, the needle part of the microneedle was coated with an antigen and 5% polyvinyl alcohol liquid, and physiological saline was dropped on the skin side, and punctured for two hours. In addition, in microneedle+lauryl alcohol group, lauryl alcohol was applied to skin beforehand, physiological saline was dropped on the skin side, and the needle of the microneedle coated with the above-described antigen and 5% polyvinyl alcohol liquid was punctured for two hours. Administration was carried out 0, 2 and 4 weeks later, and blood collection was carried out 2, 4 and 5 weeks later, and OVA specific IgG antibody titers were measured by ELISA.

[9] = system: OVA specific IgG antibody; assay: OVA specific IgG antibody titer by ELISA, intracutaneous OVA plus transdermal adjuvant; assay type: in vivo, BALB/c mouse; conditions: for Antibody titer (×10^4): OVA 10 μg/head intracutaneous, then 25 μL adjuvant applied transdermally, dosing at 0, 2, 4 weeks, data after five weeks; for immune response of the antigen IgG: intracutaneous OVA plus transdermal adjuvant on intact skin, in words
Protocol: OVA (an antigen: Ovalbumin, Sigma Company) was prepared by dissolving it in physiological saline to give 10 μg/head, and to the OVA alone group, 25 μL of OVA aqueous solution was administered intracutaneously. To the group in which various kinds of adjuvants (lauryl alcohol, oleyl alcohol, isostearyl alcohol, octyl dodecanol, polyethylene glycol monolaurate and Freund complete adjuvant (FCA)) were used in combination, immediately after OVA solution was administered intracutaneously, 25 μL of each adjuvant solution was administered (applied) transdermally on the abdominal skin surface. Administration was carried out 0, 2 and 4 weeks later, and blood collection was carried out 2, 4 and 5 weeks later, and OVA specific IgG antibody titer after 2, 4 and 5 weeks was measured by ELISA.

| Molecule | number of the lymph cells expressing an MHC Class II molecule [1] | Skin irritation score Transdermal administration [2] | Antibody titer (×10^4) [9] | other results |
| --- | --- | --- | --- | --- |
| sorbitan monolaurate | remarkable increase | not detected |  |  |
| CCCCCCCC/C=C\CCCCCCCC(=O)O [oleic acid] | remarkable increase |  |  |  |
| CCCCCCCCCCCCO [Lauryl alcohol, lauryl alcohol] | remarkable increase | not detected | 2.1 ×10^4 | OVA specific IgG antibody titer [3]: remarkably increased; OVA specific IgG antibody titer [4]: remarkably increased; adjuvant effect (MHC Class II expression), comparison among adjuvants ([1]; transdermal administration): most remarkable; antigen specific IgG, iontophoresis (IP+LA) ([5]; OVA 100 μg/head, OVA:LA:Tween 20 1:1:0.01 emulsion, 0.4 mA/patch for one hour, four weeks later): highest immune response; antigen specific IgG, skin abrading pre-treatment (abrading+LA) ([5]; OVA 100 μg/head, emulsion applied after abrading, four weeks later): high immune response; antigen specific IgG, microneedle (microneedle+LA) ([5]; OVA 100 μg/head, emulsion applied after microneedle puncture, four weeks later): high immune response; antibody titer compared to antigen administered alone ([5]; lauryl alcohol used together with OVA): significant increase; antibody titer, transnasal (antigen+LA) versus antigen alone [6]: increase of the antibody titer was observed; antibody titer, oral mucosal administration [7]: increase of the antibody titer was observed depending on the LA concentration; OVA specific IgG antibody titer [8]: remarkably increased; immune response of the antigen IgG [9]: highest immune response |
| CC(C)CCCCCCCCCCCCCCCO [Isostearyl alcohol, isostearyl alcohol] | remarkable increase | not detected | 1.3 ×10^4 |  |
| CCCCCCCCCCC(CO)CCCCCCCC (stereo not drawn) [Octyl dodecanol, octyl dodecanol] |  | not detected | 0.6 ×10^4 |  |
| sorbitan monooleate | remarkable increase |  |  |  |
| polyethylene glycol monolaurate |  | not detected | 0.9 ×10^4 |  |
| CCCCCCCC/C=C\CCCCCCCCO [Oleyl alcohol, oleyl alcohol] | remarkable increase |  | 2.1 ×10^4 | OVA specific IgG antibody titer [3]: remarkably increased; Skin irritation score Intracutaneous administration ([2]; mouse, in vivo): +++; immune response of the antigen IgG [9]: highest immune response |
